Experimental findings from patent publication US7872003B2, “Pharmaceutical compounds” (F. Hoffmann-La Roche AG, priority 2005, dated 2011) are described below.

The subject of the data set is Caco-2 cells. Description: Caco-2 permeability. The settings on record: bidirectional Caco-2 assay; values >/=1.0 indicate active cellular efflux. In kind it is in vitro ADME. The procedure:
(iii) Caco-2 Permeability
Caco-2 cells were seeded onto Millipore Multiscreen plates at 1×10^5 cells/cm^2, and were cultured for 20 days. Assessment of compound permeability was subsequently conducted. The compounds were applied to the apical surface (A) of cell monolayers and compound permeation into the basolateral (B) compartment was measured. This was performed in the reverse direction (B−A) to investigate active transport. A permeability coefficient value, Papp, for each compound, a measure of the rate of permeation of the compound across the membrane, was calculated. Compounds were grouped into low (Papp</=[…]) or high (Papp>/=[…]) absorption potential based on comparison with control compounds with established human absorption.
For assessment of a compound's ability to undergo active efflux, the ratio of basolateral (B) to apical (A) transport compared with A to B was determined. Values of B−A/A−B>/=1.0 indicated the occurrence of active cellular efflux. All of the compounds tested through the Caco-2 permeability screen had Papp values>/=1.0×10^6 cm/s.
Background: Caco-2 monolayers are a common model of the intestinal barrier.

For the molecule `CN1CCN(Cc2cc3nc(-c4cccc(O)c4)nc(N4CCOCC4)c3s2)CC1` [PI540], the “B−A/A−B asymmetry index” value is on record as “less than 1.0”.
